{"source": "patent US8852883B2", "about": "(priority 2008, dated 2014)", "key": {"[1]": {"test_system": "P. aeruginosa-derived enzyme", "type": "biochemical, Pseudomonas aeruginosa"}, "lysostaphin": {"target": "T1, lysostaphin (Staphylococcus simulans, UniProt P10547)", "T1 construct": "purchased Sigma", "T1 sequence (P10547 248-493, species assumed)": "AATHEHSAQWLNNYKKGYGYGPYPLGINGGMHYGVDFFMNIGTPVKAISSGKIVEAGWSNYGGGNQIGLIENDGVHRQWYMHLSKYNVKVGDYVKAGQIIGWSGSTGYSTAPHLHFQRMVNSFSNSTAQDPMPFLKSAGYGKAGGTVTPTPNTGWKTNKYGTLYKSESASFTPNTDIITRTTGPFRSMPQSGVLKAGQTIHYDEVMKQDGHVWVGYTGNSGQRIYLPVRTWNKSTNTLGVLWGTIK", "type": "biochemical"}, "[2]": {"test_system": "currently used micro-organisms", "type": "biochemical"}, "[3]": {"test_system": "currently used micro-organisms", "type": "biochemical", "remark": "listed apart in the source"}, "[4]": {"test_system": "(virulent) B. anthracis-derived enzyme", "type": "biochemical, Bacillus anthracis"}, "[5]": {"test_system": "enzymes derived from V. cholerae", "type": "biochemical"}, "[6]": {"test_system": "(virulent) B. anthracis-derived enzyme", "type": "biochemical, Bacillus anthracis", "remark": "listed apart in the source"}, "[7]": {"test_system": "B. thuringiensis-derived enzyme", "type": "biochemical"}, "[8]": {"test_system": "Collagenase Vibrio/Dispase", "type": "biochemical, Vibrio sp"}, "[9]": {"target": "Anthrax Lethal Factor (LF) (Bacillus anthracis, UniProt P15917)", "sequence (P15917 34-809 limits assumed)": "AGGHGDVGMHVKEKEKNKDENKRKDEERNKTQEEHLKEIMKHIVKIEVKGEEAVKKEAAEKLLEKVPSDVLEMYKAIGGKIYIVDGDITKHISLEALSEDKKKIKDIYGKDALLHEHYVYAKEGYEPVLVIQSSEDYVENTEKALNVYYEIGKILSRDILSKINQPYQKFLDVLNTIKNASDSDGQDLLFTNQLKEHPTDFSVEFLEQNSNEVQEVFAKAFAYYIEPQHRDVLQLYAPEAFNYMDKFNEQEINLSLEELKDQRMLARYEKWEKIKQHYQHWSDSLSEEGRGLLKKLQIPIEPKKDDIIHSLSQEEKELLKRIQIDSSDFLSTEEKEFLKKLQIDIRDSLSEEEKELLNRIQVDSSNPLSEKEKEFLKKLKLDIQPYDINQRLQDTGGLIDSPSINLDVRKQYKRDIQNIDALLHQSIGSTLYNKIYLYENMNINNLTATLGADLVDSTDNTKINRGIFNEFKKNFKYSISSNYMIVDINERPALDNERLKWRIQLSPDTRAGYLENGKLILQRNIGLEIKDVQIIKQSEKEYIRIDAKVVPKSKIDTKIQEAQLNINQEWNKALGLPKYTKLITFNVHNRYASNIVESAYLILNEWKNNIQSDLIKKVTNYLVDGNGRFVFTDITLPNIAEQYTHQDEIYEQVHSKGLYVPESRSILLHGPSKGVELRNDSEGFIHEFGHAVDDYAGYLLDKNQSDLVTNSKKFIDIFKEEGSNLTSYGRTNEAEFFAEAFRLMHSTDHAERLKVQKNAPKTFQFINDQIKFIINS", "type": "biochemical"}, "Thermolysin": {"target": "T2, Thermolysin (Bacillus thermoproteolyticus, UniProt P00800)", "T2 construct": "purchased Sigma", "T2 sequence (P00800 233-548)": "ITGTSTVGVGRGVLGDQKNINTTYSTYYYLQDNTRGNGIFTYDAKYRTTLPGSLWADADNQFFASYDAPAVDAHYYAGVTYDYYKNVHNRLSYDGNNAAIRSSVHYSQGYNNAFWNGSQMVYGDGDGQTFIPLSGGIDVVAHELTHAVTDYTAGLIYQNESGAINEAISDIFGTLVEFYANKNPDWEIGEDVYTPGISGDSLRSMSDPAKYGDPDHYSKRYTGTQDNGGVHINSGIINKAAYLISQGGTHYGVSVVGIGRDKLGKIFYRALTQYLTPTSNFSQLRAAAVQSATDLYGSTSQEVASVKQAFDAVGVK", "type": "biochemical"}, "[10]": {"test_system": "enzymes derived from B. globigii", "type": "biochemical"}, "B. cereus cells": {"test_system": "B. cereus cells", "type": "cell-based", "settings": "for Location of fluorescent BikKam1 fragments (fluorescence microscopy): 0.01 M BikKam1"}, "Collagenase Clostridium": {"test_system": "Collagenase Clostridium", "type": "biochemical, Clostridium sp."}, "[11]": {"test_system": "V. cholerae-derived enzyme", "type": "biochemical"}, "[12]": {"test_system": "enzymes derived from C. botulinum", "type": "biochemical"}, "[13]": {"test_system": "enzymes derived from E. herbicola", "type": "biochemical"}, "B. cereus": {"test_system": "B. cereus", "type": "biochemical"}, "B. thuringiensis": {"test_system": "B. thuringiensis", "type": "biochemical"}}, "note": "“Also recorded” adds a separate entry of the source. Like-named read-outs stand apart in the source and are kept apart here. *: point of attachment. FITC = O=C1OC2(c3ccc(O)cc3Oc3cc(O)ccc32)c2ccc(NC(=S)*)cc21; Ahx = NCCCCCC(=O)O"}
{"substance": "FITC-Ahx-Gly-Gly-DABCYL [BikKam23]", "values": [{"measurement": "Activity for P. aeruginosa compared to the other BikKam20-24 substrates", "setting": "[1]", "result": "lower than BikKam20-BikKam22; also recorded: significant decrease in activity; also recorded: lower activity"}, {"measurement": "Fluorescent signal of FRET: cleavage of substrate by P. aeruginosa-derived enzyme", "setting": "[1]", "result": "specifically cleaved"}, {"measurement": "Cleavage of substrate by lysostaphin", "setting": "lysostaphin", "result": "not cleaved; also recorded: does not interact"}]}
{"substance": "FITC-Ahx-Leu-DVal-Lys-DABCYL [BikKam6]", "values": [{"measurement": "Background with bacteria other than (virulent) B. anthracis", "setting": "[2]", "result": "hardly revealed any background"}, {"measurement": "Background with other bacteria than (virulent) B. anthracis", "setting": "[2]; at 60 min", "result": "Some weak background"}]}
{"substance": "FITC-Ahx-Pro-Hyp-Lys-DABCYL [BikKam9]", "values": [{"measurement": "Enzyme activity on substrate with the currently used micro-organisms", "setting": "[2]", "result": "No significant enzyme activity"}, {"measurement": "Enzyme activity on substrate with the currently used micro-organisms", "setting": "[3]", "result": "No significant enzyme activity"}]}
{"substance": "FITC-Ahx-Leu-DLeu-Leu-Lys-DABCYL [BikKam5]", "values": [{"measurement": "Fluorescent signal of FRET: cleavage of substrate by B. anthracis-derived enzyme", "setting": "[4]", "result": "specifically cleaved"}, {"measurement": "Fluorescent signal of FRET: cleavage of substrate by V. cholerae", "setting": "[5]", "result": "Some cleavage"}, {"measurement": "Fluorescent signal of FRET: cleavage of substrate by B. anthracis-derived enzyme", "setting": "[6]", "result": "specifically cleaved"}, {"measurement": "Fluorescent signal of FRET: cleavage of substrate by B. thuringiensis-derived enzyme", "setting": "[7]", "result": "Some weak activity"}]}
{"substance": "FITC-Ahx-Leu-DLeu-Lys-DABCYL [BikKam1]", "values": [{"measurement": "FRET signal with purified collagenase (Vibrio sp)", "setting": "[8]", "result": "No signal"}, {"measurement": "Fluorescent signal of FRET: cleavage of substrate by B. anthracis-derived enzyme", "setting": "[4]", "result": "specifically cleaved"}, {"measurement": "FRET signal with purified Lethal Factor", "setting": "[9]", "result": "No signal"}, {"measurement": "Fluorescent signal of FRET: cleavage of substrate by B. anthracis-derived enzyme", "setting": "[6]", "result": "specifically cleaved"}, {"measurement": "FRET signal with purified thermolysin", "setting": "Thermolysin", "result": "No signal"}, {"measurement": "Fluorescent signal of FRET: cleavage of substrate by B. globigii", "setting": "[10]", "result": "not capable of cleaving"}, {"measurement": "Fluorescent bacteria (fluorescence microscopy)", "setting": "B. cereus cells; 0 hr", "result": "no fluorescent bacteria could be detected"}, {"measurement": "Location of fluorescent BikKam1 fragments (fluorescence microscopy)", "setting": "B. cereus cells; B. cereus, 2 hr incubation", "result": "could be detected in the cytoplasm"}, {"measurement": "Location of fluorescent BikKam1 fragments (fluorescence microscopy)", "setting": "B. cereus cells; B. cereus, 4 hr", "result": "besides in the cytoplasm also present in the cell wall at the new division sides"}, {"measurement": "Location of fluorescent BikKam1 fragments (fluorescence microscopy)", "setting": "B. cereus cells; B. cereus, 16 hr incubation", "result": "moved from the cytoplasm to the side walls"}, {"measurement": "Fluorescent BikKam1 fragments in bacteria (fluorescence microscopy)", "setting": "B. cereus cells; B. cereus, time not stated", "result": "Detection of fluorescent BikKam1 fragments in the cytoplasm"}, {"measurement": "Fluorescent signal of FRET: cleavage of substrate by B. thuringiensis-derived enzyme", "setting": "[7]", "result": "Some weak activity"}, {"measurement": "FRET signal with purified collagenase (Clostridium sp.)", "setting": "Collagenase Clostridium", "result": "No signal"}]}
{"substance": "FITC-Ahx-Leu-Leu-Lys-DABCYL [BikKam3]", "values": [{"measurement": "Fluorescent signal of FRET: cleavage of substrate by V. cholerae", "setting": "[5]", "result": "show activity"}, {"measurement": "Fluorescent signal of FRET: cleavage of substrate by B. globigii", "setting": "[10]", "result": "show activity"}, {"measurement": "Fluorescent signal of FRET: cleavage of substrate by B. thuringiensis-derived enzyme", "setting": "[7]", "result": "specifically cleaved"}, {"measurement": "Fluorescent signal of FRET: cleavage of substrate by V. cholerae-derived enzyme", "setting": "[11]", "result": "specifically cleaved"}, {"measurement": "Fluorescent signal of FRET: cleavage of substrate by C. botulinum", "setting": "[12]", "result": "show activity"}, {"measurement": "Fluorescent signal of FRET: cleavage of substrate by E. herbicola", "setting": "[13]", "result": "show activity"}]}
{"substance": "FITC-Ahx-Gly-Gly-Gly-DABCYL [BikKam22]", "values": [{"measurement": "Activity for P. aeruginosa compared to the other BikKam20-24 substrates", "setting": "[1]", "result": "slight increase in activity; also recorded: increase in cleavage"}, {"measurement": "Fluorescent signal of FRET: cleavage of substrate by P. aeruginosa-derived enzyme", "setting": "[1]", "result": "specifically cleaved"}, {"measurement": "Cleavage of substrate by lysostaphin", "setting": "lysostaphin", "result": "somewhat cleavage"}]}
{"substance": "FITC-Ahx-Gly-DAla-Lys-DABCYL [BikKam8]", "values": [{"measurement": "Enzyme activity on substrate with the currently used micro-organisms", "setting": "[2]", "result": "No significant enzyme activity"}, {"measurement": "Enzyme activity on substrate with the currently used micro-organisms", "setting": "[3]", "result": "No significant enzyme activity"}]}
{"substance": "FITC-Ahx-Gly-DABCYL [BikKam24]", "values": [{"measurement": "Fluorescent signal of FRET: cleavage of substrate by P. aeruginosa-derived enzyme", "setting": "[1]", "result": "no P. aeruginosa activity"}, {"measurement": "Cleavage of substrate by lysostaphin", "setting": "lysostaphin", "result": "No significant enzyme activity"}, {"measurement": "Enzyme activity on substrate with the currently used micro-organisms", "setting": "[3]", "result": "No significant enzyme activity"}]}
{"substance": "FITC-Ahx-Gly-Gly-Gly-Gly-DABCYL ({FITC-Ahx}-GGGG-{DABCYL}) [BikKam21]", "values": [{"measurement": "Activity for P. aeruginosa compared to the other BikKam20-24 substrates", "setting": "[1]", "result": "slight increase in activity"}, {"measurement": "Cleavage of substrate by lysostaphin", "setting": "lysostaphin", "result": "specifically cleaved"}]}
{"substance": "FITC-Ahx-Gly-Gly-Gly-Gly-Gly-DABCYL [BikKam20]", "values": [{"measurement": "Activity for P. aeruginosa compared to the other BikKam20-24 substrates", "setting": "[1]", "result": "increase in cleavage"}, {"measurement": "Fluorescent signal of FRET: cleavage of substrate by P. aeruginosa-derived enzyme", "setting": "[1]", "result": "specifically cleaved"}, {"measurement": "Cleavage of substrate by lysostaphin", "setting": "lysostaphin", "result": "specifically cleaved"}]}
{"substance": "FITC-Ahx-DLeu-Leu-Lys-DABCYL [BikKam2]", "values": [{"measurement": "Fluorescent signal of FRET: cleavage of substrate by B. cereus", "setting": "B. cereus", "result": "weak signal"}, {"measurement": "Fluorescent signal of FRET: cleavage of substrate by B. anthracis-derived enzyme", "setting": "[4]", "result": "specifically cleaved"}, {"measurement": "Fluorescent signal of FRET: cleavage of substrate by B. anthracis-derived enzyme", "setting": "[6]", "result": "specifically cleaved"}, {"measurement": "Fluorescent signal of FRET: cleavage of substrate by B. thuringiensis", "setting": "B. thuringiensis", "result": "weak signal"}, {"measurement": "Fluorescent signal of FRET: cleavage of substrate by B. thuringiensis-derived enzyme", "setting": "[7]", "result": "specifically cleaved"}]}
{"substance": "FITC-Ahx-Gly-DLeu-Lys-DABCYL [BikKam7]", "values": [{"measurement": "Fluorescent signal of FRET: cleavage of substrate by B. anthracis-derived enzyme", "setting": "[4]", "result": "specifically cleaved"}, {"measurement": "Fluorescent signal of FRET: cleavage of substrate by B. anthracis-derived enzyme", "setting": "[6]", "result": "specifically cleaved"}, {"measurement": "Fluorescent signal of FRET: cleavage of substrate by B. thuringiensis", "setting": "B. thuringiensis", "result": "weak signal"}]}
{"substance": "FITC-Ahx-DLeu-DLeu-Lys-DABCYL [BikKam4]", "values": [{"measurement": "Fluorescent signal of FRET: cleavage of substrate by B. anthracis-derived enzyme", "setting": "[4]", "result": "specifically cleaved"}, {"measurement": "Fluorescent signal of FRET: cleavage of substrate by B. anthracis-derived enzyme", "setting": "[6]", "result": "specifically cleaved"}, {"measurement": "Fluorescent signal of FRET: cleavage of substrate by B. thuringiensis-derived enzyme", "setting": "[7]", "result": "specifically cleaved"}]}
